Assay results published in patent US7429599B2, “Methods for treating or preventing an inflammatory or metabolic condition or inhibiting JNK” (Signal Pharmaceuticals, LLC, priority 2000, dated 2008).
pIC50: −log10 of the molar value.

target: T1, His6-JNK2 (Homo sapiens, UniProt P45984); assay: JNK2 Assay (c-Jun phosphorylation, 32P-ATP filter plate); format: biochemical; details: IC50 value in the JNK2 Assay, c-Jun phosphorylation reduced to 50% of control; GST-c-Jun(1-79), 11 μM ATP
T1 construct: His6 (N)
Method: To 10 μL of the test compound in 20%/DMSO/80% dilutien buffer consisting of 20 mM HELPS (pH 7.6), 0.1 mM; EDTA, 2.5 mM magnesium chloride, 0.004% Triton×100, 2 μg/mL leupeptin, 20 mM β-glycerolphosphate, 0.1 mM sodium vanadate, and 2 mM DTT in water is added 30 μL of 50 ng His6-JNK2 in the same dilution buffer. The mixture is preincubated for 30 minutes at room temperature. Sixty microliter of 10 μg GST-c-Jun(1-79) in assay buffer consisting of 20 mM HEPES (pH 7.6), 50 mM sodium chloride, 0.1 mM EDTA, 24 mM magnesium chloride, 1 mM DTT, 25 mM PNPP, 0.05% Triton×100, 11 μM ATP, and 0.5 μCi γ-^32P ATP in water is added and the reaction is allowed to proceed for 1 hour at room temperature. The c-Jun phosphorylation is terminated by addition of 150 μL of 12.5% trichloroacetic acid. After 30 minutes, the precipitate is harvested onto a filter plate, diluted with 50 μL of the scintillation fluid and quantified by a counter. The IC50 values are calculated as the concentration of the test compound at which the c-Jun phosphorylation is reduced to 50% of the control value.

T1 sequence (P45984 whole entry): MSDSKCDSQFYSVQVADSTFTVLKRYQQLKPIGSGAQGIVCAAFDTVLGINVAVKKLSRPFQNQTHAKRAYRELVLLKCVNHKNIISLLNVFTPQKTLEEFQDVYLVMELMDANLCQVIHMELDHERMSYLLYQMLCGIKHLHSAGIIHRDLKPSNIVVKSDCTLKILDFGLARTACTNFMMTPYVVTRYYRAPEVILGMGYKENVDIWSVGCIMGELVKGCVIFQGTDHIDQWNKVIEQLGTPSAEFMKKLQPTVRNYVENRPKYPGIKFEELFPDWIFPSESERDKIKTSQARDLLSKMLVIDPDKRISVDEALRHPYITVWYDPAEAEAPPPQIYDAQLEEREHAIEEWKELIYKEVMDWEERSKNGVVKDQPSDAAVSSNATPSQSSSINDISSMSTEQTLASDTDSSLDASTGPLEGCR

SMILES | pIC50
O=C(c1ccc(Nc2nccc(-c3ccc(Cl)cc3)n2)cc1)N1CCC2(CC1)OCCO2 [Compound 17-139] | ≥ 5.00

same assay, conditions: c-Jun phosphorylation reduced to 50% of control; GST-c-Jun(1-79), 11 μM ATP; read-out: IC50 value in the JNK2 Assay

SMILES | pIC50
O=C(c1ccc(Nc2nccc(-c3ccc(SCCCO)cc3)n2)cc1)N1CCN(C(=O)c2ccco2)CC1 [Compound 17-34] | ≥ 6.00
CC(=O)NC1CCN(C(=O)c2ccc(Nc3nccc(-c4ccc(Cl)cc4)n3)cc2)CC1 [Compound 20-1] | ≥ 6.00
CCN(CC)C(=O)C1CCCN(C(=O)c2ccc(Nc3nccc(-c4ccc(Cl)cc4)n3)cc2)C1 (stereo not shown) [Compound 17-130] | ≥ 5.00
O=C(NC1CCN(C(=O)c2ccc(Nc3nccc(-c4ccc(Cl)cc4)n3)cc2)CC1)c1cccs1 [Compound 20-3] | ≥ 6.00
O=C(NCCCCO)c1ccc(Nc2nccc(-c3ccc(Cl)cc3)n2)cc1 [Compound 17-106] | ≥ 5.00
CN(C)CCNC1CCN(C(=O)c2ccc(Nc3nccc(-c4ccc(Cl)cc4)n3)cc2)CC1 [Compound 22-10] | ≥ 6.00
COC(=O)CNC(=O)c1ccc(Nc2nccc(-c3ccc(Cl)cc3)n2)cc1 [Compound 17-91] | ≥ 5.00
CC(=O)N1CCN(C(=O)c2ccc(Nc3nccc(-c4ccc(S(=O)(=O)c5ccncc5)cc4)n3)cc2)CC1 [Compound 17-29] | ≥ 6.00
O=C(NCCCn1ccnc1)c1ccc(Nc2nccc(-c3ccc(Cl)cc3)n2)cc1 [Compound 17-21] | ≥ 6.00
O=C(NCCCN1CCOCC1)c1ccc(Nc2nccc(-c3ccc(Cl)cc3)n2)cc1 [Compound 17-86] | ≥ 5.00
CN(C)CCCSc1ccc(-c2ccnc(Nc3ccc(C(N)=O)cc3)n2)cc1 [Compound 3-11] | ≥ 5.00
CN1CCN(C(=O)c2ccc(Nc3nccc(-c4ccc(Cl)cc4)n3)cc2)CC1 [Compound 17-127] | ≥ 6.00
O=C(c1ccc(Nc2nccc(-c3ccc(Cl)cc3)n2)cc1)N1CCN(Cc2ccc3c(c2)OCO3)CC1 [Compound 17-128] | ≥ 5.00
Cc1noc(C)c1C(=O)NC1CCN(C(=O)c2ccc(Nc3nccc(-c4ccc(Cl)cc4)n3)cc2)CC1 [Compound 20-2] | ≥ 5.00
C[C@@H]1CN(C(=O)c2ccc(Nc3nccc(-c4ccc(Cl)cc4)n3)cc2)C[C@H](C)N1 [Compound 17-190] | ≥ 6.00
NC(=O)c1ccc(Nc2nccc(-c3ccc([N+](=O)[O-])cc3)n2)cc1 [Compound 3-27] | ≥ 5.00
CN(C)C(=O)c1ccc(Nc2nccc(-c3ccc(SCCCO)cc3)n2)cc1 [Compound 17-31] | ≥ 6.00
CC(=O)c1ccc(N2CCN(C(=O)c3ccc(Nc4nccc(-c5ccc(Cl)cc5)n4)cc3)CC2)cc1 [Compound 17-134] | ≥ 5.00
O=C(NCCc1ccccn1)c1ccc(Nc2nccc(-c3ccc(Cl)cc3)n2)cc1 [Compound 17-118] | ≥ 5.00
COc1ccc(-c2ccnc(Nc3ccc(C(N)=O)cc3)n2)cn1 [Compound 3-24] | ≥ 6.00
CN1CCN(CCCNC(=O)c2ccc(Nc3nccc(-c4ccc(Cl)cc4)n3)cc2)CC1 [Compound 17-164] | ≥ 5.00
O=C(c1ccc(Nc2nccc(-c3ccc(Cl)cc3)n2)cc1)N1CCC(N2CCCCC2)CC1 [Compound 17-169] | ≥ 6.00
CN1CCN(CCCSc2ccc(-c3ccnc(Nc4ccc(C(N)=O)cc4)n3)cc2)CC1 [Compound 3-12] | ≥ 5.00

SMILES | pIC50
CN(CCc1ccccn1)C(=O)c1ccc(Nc2nccc(-c3ccc(Cl)cc3)n2)cc1 [Compound 17-151] | ≥ 5.00
O=C(c1ccc(Nc2nccc(-c3ccc(Cl)cc3)n2)cc1)N1CCN(c2ccccn2)CC1 [Compound 17-148] | ≥ 5.00
CN1CCN(S(=O)(=O)c2ccc(-c3ccnc(Nc4ccc(C(N)=O)cc4)n3)cc2)CC1 [Compound 3-17] | ≥ 5.00
O=C(c1ccc(Nc2nccc(-c3ccc(Cl)cc3)n2)cc1)N1CC=CCC1 [Compound 17-144] | ≥ 5.00
O=C(c1ccc(Nc2nccc(-c3ccc(Cl)cc3)n2)cc1)N1CCN(C(=O)c2ccco2)CC1 [Compound 17-159] | ≥ 5.00
CN(C)C(=O)NC1CCN(C(=O)c2ccc(Nc3nccc(-c4ccc(Cl)cc4)n3)cc2)CC1 [Compound 20-5] | ≥ 5.00
Cc1cnc(Nc2ccc(C(N)=O)cc2)nc1-c1ccc(Cl)cc1 [Compound 3-37] | ≥ 5.00
CCN1CCN(C(=O)c2ccc(Nc3nccc(-c4ccc(Cl)cc4)n3)cc2)CC1 [Compound 17-35] | ≥ 5.00
O=C(c1ccc(Nc2nccc(-c3ccc(Cl)cc3)n2)cc1)N1CCOCC1 [Compound 17-133] | ≥ 5.00
COCCNC(=O)c1ccc(Nc2nccc(-c3ccc(Cl)cc3)n2)cc1 [Compound 17-24] | ≥ 6.00
O=C(NCCCN1CCCC1=O)c1ccc(Nc2nccc(-c3ccc(Cl)cc3)n2)cc1 [Compound 17-54] | ≥ 5.00
CN(C)C(=O)c1ccc(Nc2nccc(-c3ccc(Br)cc3)n2)cc1 [Compound 17-18] | ≥ 5.00
O=C(c1ccc(Nc2nccc(-c3ccc(Cl)cc3)n2)cc1)N1CCN(c2ccccc2)CC1 [Compound 17-158] | ≥ 5.00
O=C(c1ccc(Nc2nccc(-c3ccc(Cl)cc3)n2)cc1)N1CCN(Cc2cccnc2)CC1 [Compound 17-161] | ≥ 5.00
O=C(c1ccc(Nc2nccc(-c3ccc(Cl)cc3)n2)cc1)N1CCC(O)CC1 [Compound 17-20] | ≥ 6.00
O=C(c1ccc(Nc2nccc(-c3ccc(Cl)cc3)n2)cc1)N1CCN(c2ccc([N+](=O)[O-])cc2)CC1 [Compound 17-136] | ≥ 5.00
CCN(CC)CCCNC(=O)c1ccc(Nc2nccc(-c3ccc(Cl)cc3)n2)cc1 [Compound 17-153] | ≥ 5.00
NC(=O)c1ccc(Nc2nccc(-c3ccc(Br)cc3)n2)cc1 [Compound 3-22] | ≥ 5.00
O=C(c1ccc(Nc2nccc(-c3ccc(S(=O)(=O)c4ccncc4)cc3)n2)cc1)N1CCN(C(=O)c2ccco2)CC1 [Compound 17-30] | ≥ 6.00
CN1CCCC1CCNC(=O)c1ccc(Nc2nccc(-c3ccc(Cl)cc3)n2)cc1 (stereo not shown) [Compound 17-152] | ≥ 5.00
O=C(NCCCO)c1ccc(Nc2nccc(-c3ccc(Cl)cc3)n2)cc1 [Compound 17-25] | ≥ 5.00
O=C(NCCN1CCOCC1)c1ccc(Nc2nccc(-c3ccc(Cl)cc3)n2)cc1 [Compound 17-142] | ≥ 5.00
O=C(NC1CCN(C(=O)c2ccc(Nc3nccc(-c4ccc(Cl)cc4)n3)cc2)CC1)N1CCOCC1 [Compound 20-4] | ≥ 6.00

SMILES | pIC50
NC(=O)c1ccc(Nc2nccc(-c3ccc(S(=O)(=O)c4ccccn4)cc3)n2)cc1 [Compound 3-9] | ≥ 6.00
CCC(=O)N1CCN(C(=O)c2ccc(Nc3nccc(-c4ccc(Cl)cc4)n3)cc2)CC1 [Compound 17-37] | ≥ 6.00
CN(C)CCCNC(=O)c1ccc(Nc2nccc(-c3ccc(Cl)cc3)n2)cc1 [Compound 17-154] | ≥ 6.00
CNC(=O)c1ccc(Nc2nccc(-c3ccc(Cl)cc3)n2)cc1 [Compound 17-3] | ≥ 5.00
O=C(c1ccc(Nc2nccc(-c3ccc(Cl)cc3)n2)cc1)N1CCC(NCCO)CC1 [Compound 22-11] | ≥ 6.00
CCN(C(C)=O)C1CCN(C(=O)c2ccc(Nc3nccc(-c4ccc(Cl)cc4)n3)cc2)C1 (stereo not shown) [Compound 17-162] | ≥ 5.00
CCCNC(=O)c1ccc(Nc2nccc(-c3ccc(Cl)cc3)n2)cc1 [Compound 17-132] | ≥ 5.00
O=C(c1ccc(Nc2nccc(-c3ccc(Cl)cc3)n2)cc1)N1CCC(O)C1 (stereo not shown) [Compound 17-28] | ≥ 5.00
O=C(Nc1nc2ccccc2[nH]1)c1ccc(Nc2nccc(-c3ccc(Cl)cc3)n2)cc1 [Compound 17-121] | ≥ 5.00
CN(C)c1ccc(-c2ccnc(Nc3ccc(C(N)=O)cc3)n2)cn1 [Compound 3-25] | ≥ 6.00
CC(O)CNC(=O)c1ccc(Nc2nccc(-c3ccc(Cl)cc3)n2)cc1 (stereo not shown) [Compound 17-26] | ≥ 5.00
CCN(Cc1ccncc1)C(=O)c1ccc(Nc2nccc(-c3ccc(Cl)cc3)n2)cc1 [Compound 17-147] | ≥ 6.00
CCOc1ccc(-c2ccnc(Nc3ccc(C(N)=O)cc3)n2)cn1 [Compound 3-23] | ≥ 6.00
O=CN1CCN(C(=O)c2ccc(Nc3nccc(-c4ccc(Cl)cc4)n3)cc2)CC1 [Compound 17-131] | ≥ 5.00
CN1CCC(S(=O)(=O)c2ccc(-c3ccnc(Nc4ccc(C(N)=O)cc4)n3)cc2)CC1 [Compound 3-16] | ≥ 5.00
O=C(c1ccc(Nc2nccc(-c3ccc(Cl)cc3)n2)cc1)N1CCC(c2ccccc2)CC1 [Compound 17-140] | ≥ 5.00
O=C(NCCCN1CCCCC1)c1ccc(Nc2nccc(-c3ccc(Cl)cc3)n2)cc1 [Compound 17-23] | ≥ 5.00
NC(=O)c1ccc(Nc2nccc(-c3ccc(S(=O)(=O)c4cccnc4)cc3)n2)cc1 [Compound 3-13] | ≥ 6.00
NC(=O)c1ccc(Nc2nccc(-c3cccs3)n2)cc1 [Compound 3-2] | ≥ 6.00
CC(=O)N1CCCN(C(=O)c2ccc(Nc3nccc(-c4ccc(Cl)cc4)n3)cc2)CC1 [Compound 17-160] | ≥ 5.00
O=C(c1ccc(Nc2nccc(-c3ccc(Cl)cc3)n2)cc1)N1CCN(CCO)CC1 [Compound 17-215] | ≥ 5.00
CC(=O)N1CCN(C(=O)c2ccc(Nc3nccc(-c4ccc(SCCCO)cc4)n3)cc2)CC1 [Compound 17-33] | ≥ 6.00
NC(=O)c1ccc(Nc2nccc(-c3ccc4ccccc4c3)n2)cc1 [Compound 3-34] | ≥ 5.00
